Data as given in paper PMC10746543, “Design principles for cyclin K molecular glue degraders” (Nature Chemical Biology, 2023).
Several values for one entry are separate records, joined by “and”; a condition that tells them apart may be missing. Identical values can stand only once. Like-named read-outs stand apart in the source and are kept apart here.

Assays:
CDK12 = target: T1, CDK12 (Homo sapiens, UniProt Q16531+Q9NYV4); assay: Label-free quantitative mass spectrometry in MDA-MB-231 cells, CDK12; format: cell-based
T1 construct: endogenous in cells; host or cells: MDA-MB-231
Method: (§1) MDA-MB-231 cells were treated with DMSO or a cyclin K degrader compound at 1 µM for 5 h. Cells were collected by centrifugation and washed with phosphate-buffered saline before snap freezing in liquid nitrogen. Cells were lysed by addition of lysis buffer (8 M urea, 50 mM NaCl, 50 mM 4-(2-hydroxyethyl)-1-piperazineethanesulfonic acid (EPPS) pH 8.5, and protease and phosphatase inhibitors) and homogenization by bead beating (BioSpec) for three repeats of 30 s at 2,400 rpm. Bradford assay was used to determine the final protein concentration in the clarified cell lysate. Then 50 µg of protein for each sample was reduced, alkylated and precipitated using methanol/chloroform as previously described, and the resulting washed precipitated protein was allowed to air dry. Precipitated protein was resuspended in 4 M urea, 50 mM HEPES pH 7.4, followed by dilution to 1 M urea with the addition of 200 mM EPPS, pH 8. Proteins were first digested with LysC (1:50; enzyme:protein) for 12 h at room temperature. The LysC digestion was diluted to 0.5 M urea with 200 mM EPPS pH 8 followed by digestion with trypsin (1:50; enzyme:protein) for 6 h at 37 °C. Sample digests were acidified with formic acid to a pH of 2–3 before desalting using C18 solid phase extraction plates (SOLA, Thermo Fisher Scientific). Desalted peptides were dried in a vacuum-centrifuged and reconstituted in 0.1% formic acid for liquid chromatography–mass spectrometry analysis.
(§2) Data were collected using a TimsTOF Pro2 (Bruker Daltonics) coupled to a nanoElute LC pump (Bruker Daltonics) via a CaptiveSpray nano-electrospray source. Peptides were separated on a reversed-phase C18 column (25 cm × 75 µm inner diameter, […], IonOpticks) containing an integrated captive spray emitter. Peptides were separated using a 50 min gradient of 2–30% buffer B (acetonitrile in 0.1% formic acid) with a flow rate of 250 nl min^−1 and column temperature maintained at 50 °C.
(§3) Data-dependent acquisition (DDA) was performed in Parallel Accumulation-Serial Fragmentation (PASEF) mode to determine effective ion mobility windows for downstream diaPASEF data collection. The ddaPASEF parameters included: 100% duty cycle using accumulation and ramp times of 50 ms each, one Trapped Ion Mobility Spectrometry(TIMS)-MS scan and ten PASEF ramps per acquisition cycle. The TIMS-MS survey scan was acquired between 100 m/z and 1,700 m/z and 1/K0 of 0.7–1.3 V s cm^−2. Precursors with one to five charges were selected, and those that reached an intensity threshold of 20,000 arbitrary units were actively excluded for 0.4 min. The quadrupole isolation width was set to 2 m/z for m/z < 700 and 3 m/z for m/z > 800, with the m/z between 700 m/z and 800 m/z being interpolated linearly. […] To perform diaPASEF, the precursor distribution in the DDA m/z-ion mobility plane was used to design an acquisition scheme for data-independent acquisition (DIA) data collection that included two windows in each 50 ms diaPASEF scan. Data were acquired using 16 of these 25 Da precursor double window scans (creating 32 windows) that covered the diagonal scan line for doubly and triply charged precursors, with singly charged precursors able to be excluded by their position in the m/z-ion mobility plane. These precursor isolation windows were defined between 400 m/z and 1,200 m/z and 1/K0 of 0.7–1.3 V s cm^−2.
(§4) DirectDIA mode includes first extracting the DIA data into a collection of MS2 spectra which are searched using Spectronaut’s Pulsar search engine. The search results are then used to generate a spectral library which is then employed for the targeted analysis of the DIA data. MS/MS spectra were searched against a Swissprot human database (January 2021). Database search criteria largely followed the default settings for directDIA including: tryptic with two missed cleavages, fixed carbomidomethylation of cysteine, and variable oxidation of methionine and acetylation of protein N-termini and precursor Q-value (FDR) cut-off of 0.01. […]

CDK12–cyclin K and DDB1 = target: T2, CDK12–cyclin K and DDB1 (Homo sapiens, UniProt Q16531+Q9NYV4, K965R); assay: TR-FRET ternary complex formation assay (compound titration); format: binding
T2 construct: His6–CDK12 (a.a. 713–1,052); full-length or beta-propeller B domain deletion (ΔBPB: a.a. 396–705 deleted) constructs of His6–DDB1ΔBPB, StrepII–Avi–DDB1, or His6–Spy–DDB1; made in house; host or cells: Trichoplusia ni High Five insect cells (baculovirus)
Method in brief: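 Signal was the ratio of 520 nm to 490 nm fluorescence, measured after a 70 μs delay that reduced background.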

CDK2–cyclin A = target: T3, CDK2–cyclin A (Homo sapiens, UniProt P24941); assay: Lanthascreen kinase binding assay, CDK2; settings: for Lanthascreen signal, sheet CDK2: raw replicates
T3 construct: purchased Thermo Fisher
Method: Lanthascreen experiments were performed using commercially available reagents (Thermo Fisher) and according to the manufacturer’s instructions.

cyclin K = assay: Label-free quantitative mass spectrometry in MDA-MB-231 cells, cyclin K; format: cell-based, human
Method: as §1, §2, §3, §4

[1] = label-free quantitative MS, replicate values
[2] = normalised to DMSO = 1, replicate values

T2 sequence (Q9NYV4 713-1052 K965R): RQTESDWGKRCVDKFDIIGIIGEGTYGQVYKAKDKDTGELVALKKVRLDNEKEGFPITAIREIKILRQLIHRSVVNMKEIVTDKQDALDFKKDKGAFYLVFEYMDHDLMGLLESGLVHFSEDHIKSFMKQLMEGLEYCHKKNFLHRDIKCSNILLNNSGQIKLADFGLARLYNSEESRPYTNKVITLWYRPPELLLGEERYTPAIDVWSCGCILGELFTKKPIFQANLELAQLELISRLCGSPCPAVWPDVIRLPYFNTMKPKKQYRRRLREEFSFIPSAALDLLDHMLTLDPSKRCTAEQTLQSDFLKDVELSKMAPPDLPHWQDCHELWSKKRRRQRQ
T2 sequence (O75909 1-267 partner): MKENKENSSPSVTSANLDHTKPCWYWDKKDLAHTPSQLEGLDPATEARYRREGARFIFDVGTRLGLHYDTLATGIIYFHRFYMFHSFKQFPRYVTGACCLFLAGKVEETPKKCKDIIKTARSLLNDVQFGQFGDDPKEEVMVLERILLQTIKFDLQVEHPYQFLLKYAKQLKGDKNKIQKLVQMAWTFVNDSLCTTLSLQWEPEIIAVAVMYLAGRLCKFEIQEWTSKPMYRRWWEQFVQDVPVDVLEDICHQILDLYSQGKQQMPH
T2 sequence (Q16531 whole entry): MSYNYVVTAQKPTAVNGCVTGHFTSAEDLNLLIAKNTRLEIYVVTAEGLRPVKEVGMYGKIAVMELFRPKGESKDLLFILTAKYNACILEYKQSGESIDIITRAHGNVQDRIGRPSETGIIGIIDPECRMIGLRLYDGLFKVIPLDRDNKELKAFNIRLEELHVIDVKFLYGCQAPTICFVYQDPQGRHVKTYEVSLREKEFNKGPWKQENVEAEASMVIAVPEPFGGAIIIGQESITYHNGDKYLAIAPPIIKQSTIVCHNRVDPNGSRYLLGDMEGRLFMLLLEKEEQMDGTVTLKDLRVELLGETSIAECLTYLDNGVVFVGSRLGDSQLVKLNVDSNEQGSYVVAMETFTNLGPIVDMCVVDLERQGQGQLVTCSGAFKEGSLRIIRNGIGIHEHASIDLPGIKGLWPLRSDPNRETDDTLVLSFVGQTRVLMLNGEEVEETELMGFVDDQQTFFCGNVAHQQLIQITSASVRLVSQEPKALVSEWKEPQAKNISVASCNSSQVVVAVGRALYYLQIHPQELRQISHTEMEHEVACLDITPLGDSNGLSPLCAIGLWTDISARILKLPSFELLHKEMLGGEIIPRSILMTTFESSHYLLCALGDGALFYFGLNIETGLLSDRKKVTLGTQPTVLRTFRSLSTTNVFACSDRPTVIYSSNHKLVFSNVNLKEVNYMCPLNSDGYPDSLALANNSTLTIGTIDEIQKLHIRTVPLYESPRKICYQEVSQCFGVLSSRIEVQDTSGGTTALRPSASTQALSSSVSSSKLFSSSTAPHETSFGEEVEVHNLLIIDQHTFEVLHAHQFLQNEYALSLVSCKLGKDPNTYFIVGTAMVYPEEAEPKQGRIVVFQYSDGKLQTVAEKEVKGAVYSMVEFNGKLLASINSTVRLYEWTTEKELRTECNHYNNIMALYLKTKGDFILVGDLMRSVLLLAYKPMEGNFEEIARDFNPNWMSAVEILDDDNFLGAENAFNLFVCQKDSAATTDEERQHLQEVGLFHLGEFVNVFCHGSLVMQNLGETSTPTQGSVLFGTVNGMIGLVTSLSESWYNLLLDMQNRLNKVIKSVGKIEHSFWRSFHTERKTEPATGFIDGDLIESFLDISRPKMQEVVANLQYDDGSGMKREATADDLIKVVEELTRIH
T1 sequence (Q9NYV4 whole entry): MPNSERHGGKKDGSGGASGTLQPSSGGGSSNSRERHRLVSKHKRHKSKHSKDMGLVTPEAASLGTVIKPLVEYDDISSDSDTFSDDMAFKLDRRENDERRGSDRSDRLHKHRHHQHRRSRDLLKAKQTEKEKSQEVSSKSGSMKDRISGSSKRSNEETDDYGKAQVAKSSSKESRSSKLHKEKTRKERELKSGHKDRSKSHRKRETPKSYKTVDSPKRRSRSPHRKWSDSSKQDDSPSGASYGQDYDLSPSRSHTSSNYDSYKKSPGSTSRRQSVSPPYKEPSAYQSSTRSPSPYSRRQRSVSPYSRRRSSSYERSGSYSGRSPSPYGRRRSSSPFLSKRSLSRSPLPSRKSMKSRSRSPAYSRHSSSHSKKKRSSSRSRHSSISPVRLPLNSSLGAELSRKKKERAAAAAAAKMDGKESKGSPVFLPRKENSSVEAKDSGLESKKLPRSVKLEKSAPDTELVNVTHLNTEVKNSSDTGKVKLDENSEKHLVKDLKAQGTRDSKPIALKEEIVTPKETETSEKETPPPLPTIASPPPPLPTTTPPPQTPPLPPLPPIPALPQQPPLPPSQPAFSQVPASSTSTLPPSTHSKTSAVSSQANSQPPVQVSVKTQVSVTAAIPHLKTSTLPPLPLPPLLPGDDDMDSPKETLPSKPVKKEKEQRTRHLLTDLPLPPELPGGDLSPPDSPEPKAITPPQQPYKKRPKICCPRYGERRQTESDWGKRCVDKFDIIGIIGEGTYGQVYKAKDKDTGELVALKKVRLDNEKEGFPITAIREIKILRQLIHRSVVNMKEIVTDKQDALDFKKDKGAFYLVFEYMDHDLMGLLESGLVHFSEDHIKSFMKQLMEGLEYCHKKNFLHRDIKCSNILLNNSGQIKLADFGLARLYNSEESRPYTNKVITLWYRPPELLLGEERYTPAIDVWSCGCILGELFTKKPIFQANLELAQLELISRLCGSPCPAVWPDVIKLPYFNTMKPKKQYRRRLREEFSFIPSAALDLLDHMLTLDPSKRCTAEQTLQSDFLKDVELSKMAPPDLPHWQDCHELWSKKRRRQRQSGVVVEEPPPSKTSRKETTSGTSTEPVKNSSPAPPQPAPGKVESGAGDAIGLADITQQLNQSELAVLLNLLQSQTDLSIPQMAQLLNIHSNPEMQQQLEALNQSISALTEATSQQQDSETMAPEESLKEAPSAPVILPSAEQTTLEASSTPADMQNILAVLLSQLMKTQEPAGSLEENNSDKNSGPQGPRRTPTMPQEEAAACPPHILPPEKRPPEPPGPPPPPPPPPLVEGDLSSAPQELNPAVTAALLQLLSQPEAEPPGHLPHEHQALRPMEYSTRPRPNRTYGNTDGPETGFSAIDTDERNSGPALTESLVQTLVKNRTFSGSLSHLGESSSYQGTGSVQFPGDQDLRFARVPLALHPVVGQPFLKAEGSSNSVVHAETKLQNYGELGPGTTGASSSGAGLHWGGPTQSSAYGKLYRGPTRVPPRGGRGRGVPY
T1 sequence (O75909 whole entry partner): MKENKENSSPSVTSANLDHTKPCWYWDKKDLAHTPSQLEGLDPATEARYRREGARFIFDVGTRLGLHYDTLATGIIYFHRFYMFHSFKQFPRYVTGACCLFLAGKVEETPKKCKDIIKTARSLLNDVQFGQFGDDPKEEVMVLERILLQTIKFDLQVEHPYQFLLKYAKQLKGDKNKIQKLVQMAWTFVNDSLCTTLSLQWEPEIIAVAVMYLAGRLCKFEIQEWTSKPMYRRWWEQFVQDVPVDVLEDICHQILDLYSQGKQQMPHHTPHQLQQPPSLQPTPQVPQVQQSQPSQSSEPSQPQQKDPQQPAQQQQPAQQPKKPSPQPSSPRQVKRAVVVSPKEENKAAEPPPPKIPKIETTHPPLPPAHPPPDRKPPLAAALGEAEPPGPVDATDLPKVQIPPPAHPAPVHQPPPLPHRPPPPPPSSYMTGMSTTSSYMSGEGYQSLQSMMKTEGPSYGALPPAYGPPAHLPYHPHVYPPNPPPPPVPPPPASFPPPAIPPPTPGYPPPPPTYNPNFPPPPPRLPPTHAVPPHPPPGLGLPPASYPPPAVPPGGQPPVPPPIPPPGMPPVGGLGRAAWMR
T1 sequence (Q16531 2-1140 limits assumed): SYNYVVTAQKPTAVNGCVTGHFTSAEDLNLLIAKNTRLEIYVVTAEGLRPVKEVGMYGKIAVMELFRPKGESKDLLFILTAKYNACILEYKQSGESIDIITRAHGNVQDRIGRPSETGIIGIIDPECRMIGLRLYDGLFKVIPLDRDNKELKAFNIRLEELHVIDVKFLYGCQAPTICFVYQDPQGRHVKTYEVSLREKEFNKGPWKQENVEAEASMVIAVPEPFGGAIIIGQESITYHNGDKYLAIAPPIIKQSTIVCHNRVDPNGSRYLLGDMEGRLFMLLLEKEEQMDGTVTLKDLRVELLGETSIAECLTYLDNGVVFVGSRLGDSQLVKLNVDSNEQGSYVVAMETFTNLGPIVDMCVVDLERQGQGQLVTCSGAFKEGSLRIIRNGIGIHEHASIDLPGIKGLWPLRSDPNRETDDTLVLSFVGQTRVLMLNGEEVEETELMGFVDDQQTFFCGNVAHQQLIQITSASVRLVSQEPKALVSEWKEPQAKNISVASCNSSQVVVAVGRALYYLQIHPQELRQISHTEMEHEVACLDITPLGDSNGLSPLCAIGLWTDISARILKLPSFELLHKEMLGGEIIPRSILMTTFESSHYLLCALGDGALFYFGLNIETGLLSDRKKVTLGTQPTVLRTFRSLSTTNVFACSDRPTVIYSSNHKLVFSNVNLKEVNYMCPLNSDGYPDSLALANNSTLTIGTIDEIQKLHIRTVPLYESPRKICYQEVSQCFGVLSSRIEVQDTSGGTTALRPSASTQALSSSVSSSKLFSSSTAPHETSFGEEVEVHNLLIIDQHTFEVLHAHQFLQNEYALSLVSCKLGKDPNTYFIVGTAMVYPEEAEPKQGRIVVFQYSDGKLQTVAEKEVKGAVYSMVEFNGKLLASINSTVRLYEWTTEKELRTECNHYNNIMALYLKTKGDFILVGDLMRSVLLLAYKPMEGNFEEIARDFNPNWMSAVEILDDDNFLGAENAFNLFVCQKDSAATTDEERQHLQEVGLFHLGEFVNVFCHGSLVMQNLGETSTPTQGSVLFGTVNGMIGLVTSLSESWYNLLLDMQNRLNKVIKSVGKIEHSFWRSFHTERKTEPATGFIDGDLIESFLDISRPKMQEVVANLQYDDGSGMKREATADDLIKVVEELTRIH

- CDK12 peptide count (CDK12; [1]): 703.981 and 744.171
- CDK12 peptide count (DMSO-normalised) (CDK12; [2]): 0.7821 and 0.7686
- TR-FRET signal (CDK12–cyclin K and DDB1; compound concentration 0.468 nM): 0.1979 and 0.1985 and 0.1957
- TR-FRET signal (CDK12–cyclin K and DDB1; compound concentration 2.16 nM): 0.2749 and 0.2453 and 0.2785
- TR-FRET signal (CDK12–cyclin K and DDB1; compound concentration 7.92001 nM): 0.7305 and 0.6786 and 0.7304
- TR-FRET signal (CDK12–cyclin K and DDB1; compound concentration 30.96 nM): 1.762 and 1.75 and 1.847
- TR-FRET signal (CDK12–cyclin K and DDB1; compound concentration 125.28 nM): 3.077 and 3.1244 and 3.038
- EC50 (CDK12–cyclin K and DDB1; in vitro complex formation, 50 nM CDK12–cyclin K, 100 nM DDB1, text and figures, read-out: TR-FRET EC50): 0.043 ± 0.013 µM
- EC50 (CDK12–cyclin K and DDB1; sheet MOESM7, read-out: log TR-FRET EC50 (converted)): 0.0427 µM
- EC50 (CDK12–cyclin K and DDB1; source data sheet correlations, read-out: TR-FRET EC50): 0.0427 µM
- Lanthascreen signal, sheet CDK2 (CDK2–cyclin A; Compound 0.038147 nM, experiment r13-r23): 0.01269 and 0.01279
- Lanthascreen signal, sheet CDK2 (CDK2–cyclin A; Compound 0.152588 nM, experiment r13-r23): 0.01374 and 0.01273
- Lanthascreen signal, sheet CDK2 (CDK2–cyclin A; Compound 0.610352 nM, experiment r13-r23): 0.01372 and 0.01331
- Lanthascreen signal, sheet CDK2 (CDK2–cyclin A; Compound 1.02544 nM, experiment r1-r11): 0.009631 and 0.01041
- Lanthascreen signal, sheet CDK2 (CDK2–cyclin A; Compound 3.15521 nM, experiment r1-r11): 0.01056 and 0.008974
- Lanthascreen signal, sheet CDK2 (CDK2–cyclin A; Compound 9.46563 nM, experiment r1-r11): 0.009472 and 0.0097
- Lanthascreen signal, sheet CDK2 (CDK2–cyclin A; Compound 9.76563 nM, experiment r13-r23): 0.01395 and 0.01369
- Lanthascreen signal, sheet CDK2 (CDK2–cyclin A; Compound 31.5521 nM, experiment r1-r11): 0.0114 and 0.01012
- Lanthascreen signal, sheet CDK2 (CDK2–cyclin A; Compound 39.0625 nM, experiment r13-r23): 0.01257 and 0.0126
- Lanthascreen signal, sheet CDK2 (CDK2–cyclin A; Compound 99.3891 nM, experiment r1-r11): 0.01033 and 0.009406
- Lanthascreen signal, sheet CDK2 (CDK2–cyclin A; Compound 156.25 nM, experiment r13-r23): 0.01318 and 0.01113
- Lanthascreen signal, sheet CDK2 (CDK2–cyclin A; Compound 315.521 nM, experiment r1-r11): 0.009414 and 0.009861
- Lanthascreen signal, sheet CDK2 (CDK2–cyclin A; Compound 625 nM, experiment r13-r23): 0.01295 and 0.0131
- Lanthascreen signal, sheet CDK2 (CDK2–cyclin A; Compound 2500 nM, experiment r13-r23): 0.01303 and 0.01312
- Lanthascreen signal, sheet CDK2 (CDK2–cyclin A; Compound 3155.21 nM, experiment r1-r11): 0.008384 and 0.008441
- Lanthascreen signal, sheet CDK2 (CDK2–cyclin A; Compound 10000 nM, experiment r13-r23): 0.01252 and 0.01202
- Lanthascreen signal, sheet CDK2 (CDK2–cyclin A; Compound 10002 nM, experiment r1-r11): 0.01042 and 0.01107
- IC50 (CDK2–cyclin A; Lanthascreen, read-out: CDK2 inhibition): > 10000 nM
- IC50 (CDK2–cyclin A; Supplementary Table 2, read-out: Lanthascreen IC50 [nM] CDK2): > 10000 nM
Structure (SMILES): Cc1cccc(Nc2nc(CC(=O)Nc3ncc(C)s3)cs2)n1 [HQ461]
- TR-FRET signal (CDK12–cyclin K and DDB1; compound concentration 3.6 nM): 0.4419 and 0.4117 and 0.4333 and 0.5417 and 0.5175
- TR-FRET signal (CDK12–cyclin K and DDB1; compound concentration 15.84 nM): 1.213 and 1.144 and 1.137 and 1.215 and 1.133
- TR-FRET signal (CDK12–cyclin K and DDB1; compound concentration 62.6401 nM): 2.4486 and 2.52 and 2.516 and 2.475 and 2.32
- TR-FRET signal (CDK12–cyclin K and DDB1; compound concentration 244.8 nM): 3.496 and 3.492 and 3.484 and 3.752 and 3.554
- TR-FRET signal (CDK12–cyclin K and DDB1; compound concentration 993.601 nM): 3.886 and 3.922 and 3.8902 and 4.115 and 3.832
- TR-FRET signal (CDK12–cyclin K and DDB1; compound concentration 2001.6 nM): 3.927 and 3.936 and 3.967 and 4.085 and 3.674
- cyclin K abundance (label-free MS) (cyclin K; individual replicates, sheet EDF7): 622.336 and 691.814
- cyclin K abundance (label-free MS) (cyclin K; [1]): 622.336 and 691.814
- CCNK peptide count (DMSO-normalised) (cyclin K; [2]): 0.34 and 0.3848
- average CCNK peptide count (cyclin K; sheet EDF7): 657.075
